According to ChEMBL document CHEMBL1201862, “PubChem BioAssay data set” (2004):
Active and inactive are the calls of the source.

Experiments:
[1] = fluconazole-exposed Candida albicans growth modulators – fluorescence, retest, confirmation (AID 2467); assay type: functional, cell-based
[2] = NIH-3T3 fibroblast cytotoxicity, dose response, cytotoxicity control, cell-based, fluorescence, Alamar Blue, secondary assay (AID 2327); assay type: functional;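 also: NIH-3T3 mouse fibroblasts cultured with fluconazole at 8 µg/mL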
[3] = target: Heat shock protein HSP 90-alpha (Homo sapiens, UniProt P07900); assay type: functional, organism-based
HEK293 = experiment: EBV LMP1 TES2 canonical NF-kB signalling blockers – cell-based, HEK293, luciferase, cherry-pick, dose response (AID 588343); assay type: functional; conditions: Homo sapiens
[4] = target: T1, Adenosylmethionine-8-amino-7-oxononanoate aminotransferase (Mycobacterium tuberculosis, UniProt P9WQ81); experiment: Mycobacterium tuberculosis BioA enzyme inhibitor Measured in Biochemical System Using Plate Reader - 2163-02_Inhibitor_Dose_CherryPick_Activity.; assay type: functional, Mycobacterium tuberculosis UT205
T1 sequence (P9WQ81 whole entry): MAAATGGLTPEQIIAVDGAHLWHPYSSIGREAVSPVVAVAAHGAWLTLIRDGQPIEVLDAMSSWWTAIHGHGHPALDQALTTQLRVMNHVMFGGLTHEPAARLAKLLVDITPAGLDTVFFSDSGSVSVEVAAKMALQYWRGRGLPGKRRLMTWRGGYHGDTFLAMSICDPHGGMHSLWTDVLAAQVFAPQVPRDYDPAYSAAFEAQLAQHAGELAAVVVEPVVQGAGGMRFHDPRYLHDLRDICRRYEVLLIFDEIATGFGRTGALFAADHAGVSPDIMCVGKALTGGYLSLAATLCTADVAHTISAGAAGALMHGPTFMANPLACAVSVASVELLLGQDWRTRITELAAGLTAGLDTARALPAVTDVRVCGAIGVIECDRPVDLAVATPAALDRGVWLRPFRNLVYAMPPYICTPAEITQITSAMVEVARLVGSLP

[5] = NIH3T3 cell viability loss – ATP luminescence, mouse fibroblasts, counter-screen, dose response (AID 2010); assay type: functional, cell-based;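 also: cells exposed to compound for about 90 hours before reading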
[6] = loss of viability in HepG2 cells – cell-based, CellTiter-Glo, cherry-picked, cytotoxicity control for Shn3 inhibitor project, dose response (AID 624134); assay type: functional
[7] = Trypanosoma cruzi growth suppression in host cells – NIH3T3 host cells, beta-gal luminescence, confirmation (AID 2044); assay type: functional, cell-based;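 also: intracellular parasites grown in NIH/3T3 mouse fibroblasts as host cells; luminescent beta-galactosidase reporter signal from transgenic T. cruzi replicating inside host cells; inhibitors lower the luminescence signal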
[8] = non-specific 3'UTR reporter inhibition in Clone20-Shn3RL – cell-based, Renilla luciferase, cherry-picked, counter-screen for Shn3 inhibitor project, dose response (AID 624133); assay type: functional
[9] = reduction of Shn3 3'UTR-driven luciferase in osteoblasts – cell-based, Clone20 osteoblasts, firefly luciferase, cherry-picked, dose response (AID 624132); assay type: functional;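 also: firefly luciferase luminescence from reporter carrying the Shn3 3'UTR in osteoblasts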
Beta-lactamase [10] = target: T2, Beta-lactamase (Pseudomonas aeruginosa, UniProt Q79MP6); experiment: inhibition of IMP-1 beta-lactamase activity – biochemical, epi-absorbance, selectivity assay for VIM-2 inhibitor project, dose response (AID 1920)
T2 sequence (Q79MP6 whole entry): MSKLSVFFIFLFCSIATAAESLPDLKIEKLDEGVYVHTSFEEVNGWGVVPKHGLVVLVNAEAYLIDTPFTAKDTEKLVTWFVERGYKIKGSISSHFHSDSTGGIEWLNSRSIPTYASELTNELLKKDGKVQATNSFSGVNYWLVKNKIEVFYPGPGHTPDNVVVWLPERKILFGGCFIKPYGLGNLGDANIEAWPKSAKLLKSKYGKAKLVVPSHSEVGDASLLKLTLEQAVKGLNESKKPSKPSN

Beta-lactamase [11] = target: T2, Beta-lactamase; experiment: […] counterscreen for selective VIM-2 inhibitors: dose response biochemical high throughput screening assay to identify inhibitors of IMP-1 metallo-beta-lactamase.
Beta-lactamase [12] = target: Beta-lactamase (Salmonella choleraesuis (strain SC-B67), UniProt Q5J463); experiment: Epi-absorbance-based counterscreen for selective VIM-2 inhibitors: dose response biochemical high throughput screening assay to identify inhibitors of TEM-1 serine-beta-lactamase.
Sequence of Beta-lactamase (Salmonella choleraesuis (strain SC-B67), UniProt Q5J463) (Q5J463 whole entry): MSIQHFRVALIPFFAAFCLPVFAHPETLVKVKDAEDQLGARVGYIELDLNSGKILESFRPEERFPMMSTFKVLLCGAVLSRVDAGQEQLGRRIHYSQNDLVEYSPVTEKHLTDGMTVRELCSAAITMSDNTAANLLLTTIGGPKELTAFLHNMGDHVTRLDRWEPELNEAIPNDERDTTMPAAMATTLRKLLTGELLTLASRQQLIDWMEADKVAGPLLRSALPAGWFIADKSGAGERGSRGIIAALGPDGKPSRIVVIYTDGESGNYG

[13] = target: T3, Corticotropin-releasing factor receptor 2/Corticotropin-releasing factor-binding protein (Homo sapiens, UniProt P24387+Q13324); experiment: activators of CRF receptor 2 with binding protein – uHTS hits, confirmation (AID 602473); assay type: functional; conditions: read-out: EC50_Mean
T3 sequence (Q13324 whole entry): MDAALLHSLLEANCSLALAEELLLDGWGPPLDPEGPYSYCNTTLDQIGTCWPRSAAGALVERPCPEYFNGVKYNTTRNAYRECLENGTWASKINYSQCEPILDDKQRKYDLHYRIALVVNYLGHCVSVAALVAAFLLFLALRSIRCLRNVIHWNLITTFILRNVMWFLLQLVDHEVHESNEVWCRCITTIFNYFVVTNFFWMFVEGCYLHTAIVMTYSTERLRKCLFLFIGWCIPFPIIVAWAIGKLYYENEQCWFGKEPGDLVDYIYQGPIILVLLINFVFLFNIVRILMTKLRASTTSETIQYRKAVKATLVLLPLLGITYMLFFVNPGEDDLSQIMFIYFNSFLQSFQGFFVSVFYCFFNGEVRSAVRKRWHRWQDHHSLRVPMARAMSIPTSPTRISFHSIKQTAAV
T3 sequence (P24387 whole entry): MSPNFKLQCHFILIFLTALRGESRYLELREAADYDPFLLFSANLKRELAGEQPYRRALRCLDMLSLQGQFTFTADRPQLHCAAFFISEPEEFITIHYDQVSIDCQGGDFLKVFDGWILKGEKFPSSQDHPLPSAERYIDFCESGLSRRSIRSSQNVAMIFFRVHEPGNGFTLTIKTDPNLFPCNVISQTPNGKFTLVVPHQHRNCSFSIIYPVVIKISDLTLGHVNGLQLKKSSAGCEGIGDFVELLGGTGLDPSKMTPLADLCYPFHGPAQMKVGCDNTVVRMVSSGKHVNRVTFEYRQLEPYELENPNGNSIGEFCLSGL

Cysteine protease ATG4B = target: T4, Cysteine protease ATG4B (Homo sapiens, UniProt Q9Y4P1); assay type: functional;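 also: Fluorescence-based dose-response confirmation assay measuring inhibition of ATG4B activity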
T4 sequence (Q9Y4P1 whole entry): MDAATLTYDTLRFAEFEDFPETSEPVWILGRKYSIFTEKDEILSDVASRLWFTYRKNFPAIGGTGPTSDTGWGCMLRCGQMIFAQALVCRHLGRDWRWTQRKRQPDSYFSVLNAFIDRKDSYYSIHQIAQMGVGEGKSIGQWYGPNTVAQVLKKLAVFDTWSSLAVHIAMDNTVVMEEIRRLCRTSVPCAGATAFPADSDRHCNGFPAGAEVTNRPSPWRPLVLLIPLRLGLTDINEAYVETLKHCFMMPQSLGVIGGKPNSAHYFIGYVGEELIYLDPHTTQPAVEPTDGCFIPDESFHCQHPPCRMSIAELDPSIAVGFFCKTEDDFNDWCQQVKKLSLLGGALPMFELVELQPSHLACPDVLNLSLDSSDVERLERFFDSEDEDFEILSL

Phospholipase A2 = Phospholipase A2 (Homo sapiens, UniProt P04054); assay type: functional;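 also: confirmatory dose-response counterscreen on phospholipase A2, testing hits that came from an ultra-high-throughput screen for ATG4B inhibitors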
Sequence of Phospholipase A2 (P04054 whole entry): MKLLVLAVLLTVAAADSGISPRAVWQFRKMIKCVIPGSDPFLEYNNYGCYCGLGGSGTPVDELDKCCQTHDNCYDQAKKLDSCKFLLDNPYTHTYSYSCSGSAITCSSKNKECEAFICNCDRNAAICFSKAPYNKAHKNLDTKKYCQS

Q: Which results are given for `O=C(Oc1c(Cl)cc(Cl)c2cccnc12)c1cccc([N+](=O)[O-])c1`?
A: EC50 [1]: 0.119 µM (active); EC50 [2]: 5.41 µM (active); AC50 [3]: 14.3 µM (active); AC50 (HEK293): 30.6 µM (active)

Q: With `O=C(c1ccncc1)N1CC[C@@H]2[C@H]1c1cc(Br)ccc1N[C@@H]2CO` as the compound, how does the AC50 [4] read?
A: Its AC50 is 0.894 µM (active).

Q: Which AC50 [4] does the source give for `O=C(c1ccncc1)N1CC[C@@H]2[C@H](CO)Nc3ccc(Br)cc3[C@@H]21` here?
A: Its AC50 is 1.17 µM (active).

Q: For `CCOc1cc(CNCc2ccccc2)ccc1OCc1ccc(Cl)cc1`, which EC50 [5] is on record?
A: The EC50 was > 16 µM (not active).

Q: What about the AC50 [6] of the same compound?
A: The AC50 was 19.7 µM (active).

Q: And the EC50 [7]?
A: Its EC50 is 2.88 µM (active).

Q: And the AC50 [8]?
A: Its AC50 is 5.41 µM (active).

Q: And the AC50 [9]?
A: The AC50 was 6.69 µM (active).

Q: Which results are given for `CCCc1cc(=O)oc2c3c(cc(OCC(=O)N4CCC[C@H]4C(=O)O)c12)OC(C)(C)CC3`?
A: IC50 (Beta-lactamase [10]): > 59.6 µM (inactive); IC50 (Beta-lactamase [11]): > 59.6 µM (inactive); IC50 (Beta-lactamase [12]): > 59.6 µM (inactive)

Q: Which EC50 [13] does the source give for `COc1ccc(C=Cc2ccc3ccccc3n2)c(OC)c1` here?
A: Its EC50 is > 53 µM (inactive).

Q: And the AC50 (HEK293)?
A: The AC50 was 14.5 µM (active).

Q: With `CCCOc1ccc2c3c(c(=O)oc2c1OCCC)CCC3` as the compound, how does the IC50 (Cysteine protease ATG4B) read?
A: Its IC50 is 11.4 µM (active).

Q: And the IC50 (Phospholipase A2)?
A: The IC50 was 7.13 µM (active).

Q: And the AC50 [4]?
A: The AC50 was 14.7 µM (active).
